Measured values reported in patent publication US20160046592A1, “PHARMACEUTICAL COMPOSITION FOR THE TREATMENT OF DIABETES” (Ajinomoto Co., Inc., priority 2013, published 2016).
pEC50: −log10 of the molar value. Structures can show the parent of a compound that is named as a salt.

Molecular target: T1, human GYS1 (glycogen synthase) (Homo sapiens, UniProt P13807)
T1 construct: made in house; host or cells: HEK293T
T1 sequence (P13807 1-737): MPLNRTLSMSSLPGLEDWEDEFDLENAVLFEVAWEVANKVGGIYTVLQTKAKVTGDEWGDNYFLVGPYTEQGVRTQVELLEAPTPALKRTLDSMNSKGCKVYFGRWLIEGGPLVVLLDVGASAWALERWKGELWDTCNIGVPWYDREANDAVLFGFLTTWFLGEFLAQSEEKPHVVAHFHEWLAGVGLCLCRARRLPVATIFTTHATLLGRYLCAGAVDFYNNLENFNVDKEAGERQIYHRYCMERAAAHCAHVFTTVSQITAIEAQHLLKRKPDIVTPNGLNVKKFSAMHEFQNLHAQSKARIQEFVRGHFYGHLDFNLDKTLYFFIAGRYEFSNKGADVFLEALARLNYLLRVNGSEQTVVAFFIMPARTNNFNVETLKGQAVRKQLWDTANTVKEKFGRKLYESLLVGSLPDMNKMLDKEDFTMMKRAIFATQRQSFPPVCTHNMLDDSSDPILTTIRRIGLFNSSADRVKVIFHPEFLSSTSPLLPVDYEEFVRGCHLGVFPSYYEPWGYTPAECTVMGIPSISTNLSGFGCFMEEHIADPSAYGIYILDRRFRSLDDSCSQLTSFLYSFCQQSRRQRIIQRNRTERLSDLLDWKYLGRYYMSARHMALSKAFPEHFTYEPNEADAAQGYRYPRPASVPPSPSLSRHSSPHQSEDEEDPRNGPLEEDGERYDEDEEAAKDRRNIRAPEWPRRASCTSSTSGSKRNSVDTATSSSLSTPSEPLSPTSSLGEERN
Experiment: Measurement of glycogen synthase activity
Format: biochemical
Conditions: concentration causing 50% increase in relative activity; 100% = compound of Example 1 of WO/2011/058154 at 10 μM; 10 mM Glucose-6-phosphate; 37° C. for 25 minutes (Examples 1 to 61 and 67 to 82) or 20 minutes (Examples 62 to 66); absorbance at 340 nm
How it was run: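 Human GYS1 from transfected HEK293T cells (re-dissolved 16000×g pellet) was reacted at 37 °C for 25 or 20 min in glycylglycine pH 7.3 with glucose-6-phosphate, glycogen and UDP-glucose. PK/LDH-coupled NADH read-out at 340 nm; EC50 from activity relative to a reference activator at 10 μM final (100%).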

CO[C@H]1CCN(C(=O)c2cccc(COc3ccc(-c4cc(F)c(F)c5ccoc45)cc3)c2)[C@@H]1C(=O)O [Example 78, (2S,3S)-1-[3-[[4-(4,5-Difluorobenzofuran-7-yl)phenoxy]methyl]benzoyl]-3-methoxy-pyrrolidine-2-carboxylic Acid] was tested, and the pEC50 was 7.70.

Compound CSc1cc(F)c(F)cc1-c1ccc(OCc2cccc(C(=O)N(CC(=O)O)Cc3cccnc3)c2)cc1 [Example 39, 2-[[3-[[4-(4,5-Difluoro-2-methylsulfanyl-phenyl)phenoxy]methyl]benzoyl]-(3-pyridylmethyl)amino]acetic Acid Trifluoroacetate] has a pEC50 of 7.68.

In the case of CSc1cc(F)c(F)cc1-c1ccc(OCc2cccc(C(=O)N(CC(=O)O)CC3CCOCC3)c2)cc1 [Example 34, 2-[[3-[[4-(4,5-Difluoro-2-methylsulfanyl-phenyl)phenoxy]methyl]benzoyl]-(tetrahydropyran-4-ylmethyl)amino]acetic Acid], the pEC50 was 7.62.

In the case of CSc1cc(F)c(F)cc1-c1ccc(OCc2cccc(C(=O)N(CC(N)=O)CC(=O)O)c2)cc1 [Example 10, 2-[(2-Amino-2-oxo-ethyl)-[3-[[4-(4,5-difluoro-2-methylsulfanyl-phenyl)phenoxy]methyl]benzoyl]amino]acetic Acid], the pEC50 was 8.14.

NC(=O)CCN(CC(=O)O)C(=O)c1cccc(COc2ccc(-c3cc(F)c(F)c4ccoc34)cc2)c1 [Example 79, 2-[(3-Amino-3-oxo-propyl)-[3-[[4-(4,5-difluorobenzofuran-7-yl)phenoxy]methyl]benzoyl]amino]acetic Acid] showed a pEC50 of 7.66.

Work on CSc1cc(F)c(F)cc1-c1ccc(OCc2cccc(C(=O)N(CCN3CCCC3)CC(=O)O)c2)cc1 [Example 40, 2-[[3-[[4-(4,5-Difluoro-2-methylsulfanyl-phenyl)phenoxy]methyl]benzoyl]-(2-pyrrolidin-1-ylethyl)amino]acetic Acid Trifluoroacetate] yielded a pEC50 of 7.62.

Cc1coc2c(-c3ccc(OCc4cccc(C(=O)N(CCS(C)(=O)=O)CC(=O)O)c4)cc3)cc(F)c(F)c12 [Example 14, 2-[[3-[[4-(4,5-Difluoro-3-methyl-benzofuran-7-yl)phenoxy]methyl]benzoyl]-(2-methylsulfonylethyl)amino]acetic Acid] gave a pEC50 of 7.82.

CS(=O)(=O)NCCN(CC(=O)O)C(=O)c1cccc(COc2ccc(-c3cc(F)c(F)c4ccoc34)cc2)c1 [Example 16, 2-[[3-[[4-(4,5-Difluorobenzofuran-7-yl)phenoxy]methyl]benzoyl]-[2-(methanesulfonamido)ethyl]amino]acetic Acid] gave a pEC50 of 7.80.

Compound CSc1cc(F)c(F)cc1-c1ccc(OCc2cccc(C(=O)N(CCCN(C)C)CC(=O)O)c2)cc1 [Example 26, 2-[[3-[[4-(4,5-Difluoro-2-methylsulfanyl-phenyl)phenoxy]methyl]benzoyl]-[3-(dimethylamino)propyl]amino]acetic Acid Trifluoroacetate] has a pEC50 of 7.85.

In the case of O=C(O)CN(CC1CCNCC1)C(=O)c1cccc(COc2ccc(-c3cc(F)c(F)c4ccoc34)cc2)c1 [Example 12, 2-[[3-[[4-(4,5-Difluorobenzofuran-7-yl)phenoxy]methyl]benzoyl]-(4-piperidylmethyl)amino]acetic Acid Trifluoroacetate], the pEC50 was 7.80.
